Data published in patent publication US20220041627A1, “PRODRUGS OF ANTI-CANCER AND ANTI-AUTOIMMUNE DISEASES THERAPEUTIC AGENTS, AND METHODS OF MAKING AND USE THEREOF” (UNIVERSITY OF MARYLAND, BALTIMORE, priority 2018, published 2022).

Legend:
Format in all cases: cell-based, human
IGROV1 = test: NCI-60 growth inhibition, IGROV1
From the text: (§1) The anticancer effects of compounds 1a-1b against 60 human cancer cell lines (the Developmental Therapeutics Program of NCI) were studied. The cell lines were derived from different cancer types including leukemia, non-small-cell lung cancer, colon cancer, CNS cancer, melanoma, ovarian cancer, renal cancer, prostate cancer, and breast cancer (Table 1; the assay protocol can be found at: https://dtp.cancer.gov/default.htm). Compound 1a caused over 50% growth inhibition for most tested cell lines. […] Without wishing to be bound by any particular theory, it is believed that the differences in the anticancer effects between compounds 1a and 1b may be due to the more favorable cell membrane permeability of the boronic ester 1a.

SN12C = test: NCI-60 growth inhibition, SN12C; details: Renal Cancer SN12C, 48 h
From the text: as §1

TK-10 = test: NCI-60 growth inhibition, TK-10
From the text: as §1

ACHN = test: NCI-60 growth inhibition, ACHN; details: Renal Cancer ACHN, 48 h
From the text: as §1

MALME-3M = test: NCI-60 growth inhibition, MALME-3M; details: Melanoma MALME-3M, 48 h
From the text: as §1

HCT-15 = test: NCI-60 growth inhibition, HCT-15
From the text: as §1

SF-295 = test: NCI-60 growth inhibition, SF-295
From the text: as §1

RPMI-8226 = test: NCI-60 growth inhibition, RPMI-8226
From the text: as §1

KM12 = test: NCI-60 growth inhibition, KM12
From the text: as §1

OVCAR-3 = test: NCI-60 growth inhibition, OVCAR-3
From the text: as §1

MDA-MB-231/ATCC = test: NCI-60 growth inhibition, MDA-MB-231/ATCC; details: Breast Cancer MDA-MB-231/ATCC, 48 h
From the text: as §1

HT29 = test: NCI-60 growth inhibition, HT29
From the text: as §1

SNB-19 = test: NCI-60 growth inhibition, SNB-19
From the text: as §1

U251 = test: NCI-60 growth inhibition, U251
From the text: as §1

MOLT-4 = test: NCI-60 growth inhibition, MOLT-4
From the text: as §1

[1] = tested on: MCF7 cells pretreated with the ROS scavenger N-Acetyl-Cysteine (NAC); test: Cell viability of MCF7 cells pretreated with ROS scavenger NAC; details: 10 mM NAC, pre-incubation 2 hours
Protocol: FIG. 3 illustrates the effect of ROS on the activation of 1a-b. Cell viability assay of MCF7 cancer cells treated with varying concentrations of 1a-b in the presence of 10 mM NAC. Pre-incubation with this ROS scavenger was carried out for 2 hours. Data are presented as mean SD, n=4.
Cell Counting Kit-8 (CCK8, Dojingo) was used to carry out the cytotoxicity assessment of the prodrugs. Seeded cells were treated with varying compound concentrations for 48-72 h and the CCK8 kit was used to measure the cytotoxicity. For NAC experiments, this ROS scavenger was pre-incubated with the cells for 2 h and then co-incubated with the prodrugs for additional 48 hours unless otherwise noted.
The anticancer effects of new compounds 1a and 1b were tested using the breast cancer MCF7 cells and normal MEC1 cells (FIGS. 2A and 2B). […] These differential killing results highlight the specificity of new prodrugs 1a-1b for cancer cells over normal cells. […] To further verify the role of ROS in the drug release process, the MTT assays was performed, using MCF7 cells pretreated with the ROS scavenger N-Acetyl-Cysteine (NAC).

γH2AX = γH2AX immunofluorescence assay in MCF7 cells; details: 48 h
Protocol: FIGS. 4A and 4B illustrate the effect of compounds 1a-1b in apoptosis. FIG. 4A: immunofluorescence of DNA cleavage protein γH2Ax was enhanced by using 5-FU and prodrugs 1a-1b. FIG. 4B: immunoblot analysis of MCF-7 cells treated with 5-FU, prodrugs 1a-1b for apoptosis markers PARP1 and Caspase 3. The cells were treated for 48 h with the indicated concentrations of compounds.
Immunohistochemistry Analysis. MCF7 cells were seeded on poly-D-lysine coated slides. Compounds were incubated with cells for 48 h. Following treatment, cells were washed once in PBS and fixed in 10% formalin for 20 min at room temperature. Methanol was used to permeabilize the cells for 10 min and PBS wash was carried out. Bovine serum albumin was used for 1 h blocking and primary antibodies for γH2AX (SCBT, #sc-517348) was incubated with the cells overnight. Fluorescent secondary antibodies were incubated with cells along with DAPI. Cells were washed trice with PBS and the slides were mounted prior to confocal imaging.
To understand the mechanism of action of prodrugs 1a-1b, the impact of the treatment of compounds 1a-1b on the γH2AX formation in MCF7 cells were determined using immunofluorescence assay (FIG. 4A). […] The effects of prodrugs 1a-1b on the PARP1 and caspase 3 cleavage in MCF7 cells were also determined using Western blots assays (FIG. 4B). […] Treatment of 5-FU and compounds 1a-1b increased the levels of cleavage of PARP1 and caspase 3 in MCF7 cells, as compared with that in the vehicle-treated controls. Therefore, prodrugs 1a-1b, similar to 5-FU, can induce MCF7 cell apoptosis, which might contribute to their pharmacological actions.

OVCAR-4 = test: NCI-60 growth inhibition, OVCAR-4
From the text: as §1

LOX IMVI = test: NCI-60 growth inhibition, LOX IMVI; details: Melanoma LOX IMVI, 48 h
From the text: as §1

SK-OV-3 = test: NCI-60 growth inhibition, SK-OV-3
From the text: as §1

BT-549 = test: NCI-60 growth inhibition, BT-549
From the text: as §1

Compound: CC1(C)OB(c2ccc(Cn3cc(F)c(=O)[nH]c3=O)cc2)OC1(C)C [Compound 1a, 5-Fluoro-1-(4-(4,4,5,5-tetramethyl-1,3,2-dioxaborolan-2-yl)benzyl)pyrimidine-2,4(1H,3H)-dione]
- inhibition at 50 µM (IGROV1; Homo sapiens, IGROV-1, Ovarian Cancer IGROV1, 48 h): 56%
- inhibition at 50 µM (SN12C; Homo sapiens): 19%
- inhibition at 50 µM (TK-10; Homo sapiens, Renal Cancer TK-10, 48 h): 21%
- inhibition at 50 µM (ACHN; Homo sapiens): 8%
- inhibition at 50 µM (MALME-3M; Homo sapiens): 55%
- inhibition at 50 µM (HCT-15; Homo sapiens, Colon Cancer HCT-15, 48 h): 32%
- inhibition at 50 µM (SF-295; Homo sapiens, CNS Cancer SF-295, 48 h): 14%
- inhibition at 50 µM (RPMI-8226; Homo sapiens, Leukemia RPMI-8226, 48 h): 32%
- inhibition at 50 µM (KM12; Homo sapiens, Colon Cancer KM12, 48 h): 74%
- inhibition at 50 µM (OVCAR-3; Homo sapiens, Ovarian Cancer OVCAR-3, 48 h): 95%
- inhibition at 50 µM (MDA-MB-231/ATCC; Homo sapiens): 14%
- inhibition at 50 µM (HT29; Homo sapiens, HT-29, Colon Cancer HT29, 48 h): 76%
- inhibition at 50 µM (SNB-19; Homo sapiens, CNS Cancer SNB-19, 48 h): 29%
- inhibition at 50 µM (U251; Homo sapiens, U-251, CNS Cancer U251, 48 h): 17%
- inhibition at 50 µM (MOLT-4; Homo sapiens, Leukemia MOLT-4, 48 h): 45%
- anticancer effects upon pretreatment of NAC [1]: decreased significantly
- γH2AX formation (γH2AX): dramatically increased
- inhibition at 50 µM (OVCAR-4; Homo sapiens, Ovarian Cancer OVCAR-4, 48 h): 30%
- inhibition at 50 µM (LOX IMVI; Homo sapiens): 47%
- inhibition at 50 µM (SK-OV-3; Homo sapiens, Ovarian Cancer SK-OV-3, 48 h): 31%
- inhibition at 50 µM (BT-549; Homo sapiens, Breast Cancer BT-549, 48 h): 60%

Compound: O=c1[nH]c(=O)n(Cc2ccc(B(O)O)cc2)cc1F [Compound 1b, (4-((5-Fluoro-2,4-dioxo-3,4-dihydropyrimidin-I(2H)-yl)methyl)phenyl)boronic acid]
- Growth Inhibition (%) (IGROV1; Ovarian Cancer IGROV1, 50 μM, 48 h): 15%
- Growth Inhibition (%) (SN12C; 50 μM): 7%
- Growth Inhibition (%) (TK-10; Renal Cancer TK-10, 50 μM, 48 h): 20%
- Growth Inhibition (%) (ACHN; 50 μM): 0%
- Growth Inhibition (%) (MALME-3M; 50 μM): 32%
- Growth Inhibition (%) (HCT-15; Colon Cancer HCT-15, 50 μM, 48 h): 10%
- Growth Inhibition (%) (SF-295; CNS Cancer SF-295, 50 μM, 48 h): 5%
- Growth Inhibition (%) (RPMI-8226; Leukemia RPMI-8226, 50 μM, 48 h): 2%
- Growth Inhibition (%) (KM12; Colon Cancer KM12, 50 μM, 48 h): 20%
- Growth Inhibition (%) (OVCAR-3; Ovarian Cancer OVCAR-3, 50 μM, 48 h): 30%
- Growth Inhibition (%) (MDA-MB-231/ATCC; 50 μM): 13%
- Growth Inhibition (%) (HT29; Colon Cancer HT29, 50 μM, 48 h): 12%
- Growth Inhibition (%) (SNB-19; CNS Cancer SNB-19, 50 μM, 48 h): 11%
- Growth Inhibition (%) (U251; CNS Cancer U251, 50 μM, 48 h): 4%
- Growth Inhibition (%) (MOLT-4; Leukemia MOLT-4, 50 μM, 48 h): 5%
- anticancer effects upon pretreatment of NAC [1]: decreased significantly
- γH2AX formation (γH2AX): dramatically increased
- Growth Inhibition (%) (OVCAR-4; Ovarian Cancer OVCAR-4, 50 μM, 48 h): 2%
- Growth Inhibition (%) (LOX IMVI; 50 μM): 8%
- Growth Inhibition (%) (SK-OV-3; Ovarian Cancer SK-OV-3, 50 μM, 48 h): 13%
- Growth Inhibition (%) (BT-549; Breast Cancer BT-549, 50 μM, 48 h): 30%
